Laboratory results: US10485237B2, “Use of a chemical agent for thinning of stone fruit” (FINE AGROCHEMICALS LIMITED, priority 2014, dated 2019)
“Also recorded” adds a separate entry of the source.

How the values were obtained:
UFO-4 nectarines [1] = test: Dose rate trial in Spain, fruit numbers; type: in vivo, nectarine; conditions: 10 g/hL (Falgro tablets), comparative experiment B
peach [2] = test: Ex 6: 2011 peach return bloom (blossom counts proximal/distal); type: in vivo
Text: Shoots were divided in half and blossoms were counted according to proximal, the half closest to the tree trunk, and distal, the half closest to the shoot tip.

UFO-4 nectarines [3] = test: Dose rate trial in Spain, fruit numbers; type: in vivo, nectarine
Protocol: (§1) Two trials were carried out in Spain: a timing trial and a dose rate trial. The dose rate trial was done at UFO-4 nectarines. The use of GA7 (>95% pure with respect to the presence of GA4) was applied in amounts between 0.25 and 2 L/hL at 2 months of full bloom on UFO-4 peach.

apricot variety = conditions: cited from earlier work
stone fruit [4] = test: Summary of the thinning tests with GA7; type: in vivo; conditions: compared with fully hand-thinned fruit
peach [5] = test: Ex 7: 2012 peach return bloom; type: in vivo; conditions: applied at 50 ppm
Text: Once again, shoots were divided in half and blossoms were counted according to proximal and distal halves.

peach and nectarines = test: Other three 2011-12 trials, number of flowers per branch; type: in vivo; conditions: depending on the trial and the rate
Protocol: (§2) Trials were carried out in Italy and Spain with GA7. The trees were treated with GA7 about 3 months after full bloom in order to reduce flowering the year thereafter.
(§3) In 2011, new trials were started: 4 trials in peach and nectarines.

peach and nectarine [6] = test: 2010-11 thinning trials in Spain (Catalonia, Masso); type: in vivo
Protocol: as §2
In Spain, trials were carried out on peach and nectarine with GA7 (>95% pure relative to GA4). The first assessments were done at harvest in 2010. […] The main assessments took place in spring 2011 (i.e. the next year): The reduction of the number of buds per cm was in the order of 35% in the trials carried out in the Catalonia region. In the trials in Masso also, clear reductions of 41-78% were found depending on the variety and the dose. In the meantime, fruit size was increased. Time necessary for hand thinning was recorded in the trials done in Catalonia. The treatment with GA7 allowed a reduction of about 30% of the hand thinning time.

peach and nectarine [7] = test: 2010-11 thinning trial in Italy; type: in vivo; conditions: 1 L/100 L ca. 3 months after full bloom, GA7 95% pure relative to GA4
Protocol: as §2

Merryl O Henry peach = test: Timing trial in Spain, fruit numbers; type: in vivo
Protocol: as §1
Further trial was executed on Merryl O Henry peach. The application of GA7 was varied over time, and in one programme GA7 was applied in two doses, 2 weeks apart.

stone fruit [8] = test: Reliability of fruit thinning by spraying on fruit trees; type: in vivo; conditions: sprayed on fruit trees
Text: GA7 may be used in admixture with GA4, but the relative amounts of GA7 to GA4 are 70% GA7 or more and 30 GA4 or less. Preferably, the GA7 contains less than 10 wt % of GA4 relative to the GA7, more preferably less than 5 wt %. […] In some years, some thinning is observed, but this effect is not consistently achieved.

peach [9] = test: Initial evaluation trial in Piemonte, GA7 on peach fruitlets; type: in vivo; conditions: 750 ml/hl on 10 mm fruitlets of peach
Protocol: An initial test was carried out as an evaluation trial in Piemonte with GA7 applied at 750 ml/hl on 10 mm fruitlets of peach.

peach [10] = test: Ex 8: 2011 peach trial (flowers per branch, fruit size and quality); type: in vivo
Text: This study consisted of 3 treatments applied on April 25, May 10, and May 26, 2011 (which is 45, 60 and 75 days after full bloom): • 1. Untreated check • 2. FAL 900 at a rate of 25 ppm ai (C) which is 2.5 g per 100 L, which is 0.25 L formulation per 100 L. • 3. FAL 900 at a rate of 50 ppm ai (C) • 4. FAL 900 at a rate of 10 ppm ai (3 treatments with 2 weeks interval) 2011-12 Observations: Evaluations consisted of assessing for firmness, soluble solids, and titratable acidity, and weight of 20 fruit per plot on end of July early August. Shoot measurements were recorded on end of February in […] from ten shoots per plot. The number of flowers per branch were counted from two halves (proximal and distal) of ten branches per plot on end of February 2012.

nectarine = test: 2011-12 trial in nectarine, return bloom (number of flowers on distal and basal part of branches); type: in vivo
Protocol: as §2, §3

[11] = 10 g/hL (Falgro tablets), comparative experiment B
[12] = 0.5 L/hL, sprays 1.5 and 2 month after full bloom (two doses)
[13] = 1 L/hL, spray 1.5 month after full bloom
[14] = 1 L/hL, spray 2 month after full bloom
[15] = 1 L/hL, spray 2.5 month after full bloom
[16] = 0.25 L/hL at 2 months of full bloom
[17] = 0.5 L/hL at 2 months of full bloom
[18] = 1.0 L/hL at 2 months of full bloom
[19] = 2.0 L/hL at 2 months of full bloom

## C=C1C[C@]23C[C@@]1(O)CC[C@H]2[C@@]12C=C[C@H](O)[C@@](C)(C(=O)O1)[C@H]2[C@@H]3C(=O)O [GA3, gibberellic acid]
UFO-4 nectarines [1]
  Number of fruit/m of long fruiting shoots (>20 cm): 18
  Number of fruit/m of total fruiting shoots: 19
Peach [2]; both rates, throughout the trial
  blossom counts in comparison to the UTC: consistently lower blossom counts
Peach [2]; two evaluation dates
  rate response of blossom counts: a rate response was observed for the first evaluation date, but not the second
UFO-4 nectarines [3]; [11]
  Number of fruit/m of short fruiting shoots (<20 cm): 29
  Total number of fruit per tree: 675

## C=C1C[C@]23C[C@H]1CC[C@H]2[C@@]12CC[C@H](O)[C@@](C)(C(=O)O1)[C@H]2[C@@H]3C(=O)O [GA4, reference compound]
Apricot variety; applied in May or June, source and purity unclear
  effectiveness compared among GA3, GA4 and GA7: more effective than either GA3 or GA7

## C=C1C[C@]23C[C@H]1CC[C@H]2[C@@]12C=C[C@H](O)[C@@](C)(C(=O)O1)[C@H]2[C@@H]3C(=O)O [GA7, gibberellin 7]
Apricot variety; 6 experiments
  effect on flowering vs. untreated: only in 1 out of 6 experiments a non significant reducing effect on flowering; also recorded: in 4 experiments out of 6 shows the opposite effect of increased flowering
Stone fruit [4]
  quality of the resultant fruit: same quality as fully hand-thinned fruit
Peach [5]
  2012 return bloom, bloom counts totaled across the entire fruiting branch (proximal+distal): significant reduction
Peach and nectarines
  reduction in the number of flowers per branch in comparison to the untreated: −17 to −50%
Peach and nectarine [6]; Masso trials, 2011
  fruit size: increased
Peach and nectarine [6]; assessments at harvest in 2010, GA7 >95% pure relative to GA4
  impact of the treatments on yield and fruit quality: did not show any impact
Peach and nectarine [6]; spring 2011, Masso, depending on the variety and the dose
  reductions (trials in Masso): 41-78%
Peach and nectarine [6]; spring 2011, trials in the Catalonia region
  reduction of the number of buds per cm: ~35%
Peach and nectarine [6]; trials done in Catalonia
  reduction of the hand thinning time: about 30%
Peach and nectarine [7]; variety Laura
  reduction in the number of fruit/meter of branch: 1.5%
Peach and nectarine [7]; variety Sinphony
  reduction in the number of fruit/meter of branch: 32.9%
Merryl O Henry peach; [12]
  Number of fruit/m of long fruiting shoots (>20 cm): 4.7
  Number of fruit/m of short fruiting shoots (<20 cm): 5.8
  Number of fruit/m of total fruiting shoots: 5.6
  Total number of fruit per tree: 115
Merryl O Henry peach; [13]
  Number of fruit/m of long fruiting shoots (>20 cm): 8.6
  Number of fruit/m of short fruiting shoots (<20 cm): 5.9
  Number of fruit/m of total fruiting shoots: 6.5
  Total number of fruit per tree: 149
Merryl O Henry peach; [14]
  Number of fruit/m of long fruiting shoots (>20 cm): 5.1
  Number of fruit/m of short fruiting shoots (<20 cm): 3.6
  Number of fruit/m of total fruiting shoots: 3.8
  Total number of fruit per tree: 77
Merryl O Henry peach; [15]
  Number of fruit/m of long fruiting shoots (>20 cm): 3.7
  Number of fruit/m of short fruiting shoots (<20 cm): 2.8
  Number of fruit/m of total fruiting shoots: 3.0
  Total number of fruit per tree: 69
Merryl O Henry peach; applied at varying times
  effectiveness for thinning stone fruit: effective for thinning stone fruit
Stone fruit [8]
  reliability of fruit thinning results: reliable thinning results
Peach [9]
  control of flowering in the following year: high control of flowering
Peach [9]; especially on young lateral branches
  budding: better budding
Peach [10]; 50 ppm ai (C)
  number of flowers on the lower or proximal half of the branch (A): significantly lowest
Peach [10]; 50 ppm ai, tree also producing the largest peaches in 2011
  size of peaches collected: largest peaches
Peach [10]; firmness, soluble solids, titratable acidity, weight
  quality of the peaches: not influenced
nectarine; basal part, 0.5 L/hL
  No of flowers: 8.5
  No of flowers, change vs untreated: −37%
nectarine; basal part, 1 L/hL
  No of flowers: 5.4
  No of flowers, change vs untreated: −60%
nectarine; distal and proximal part of the branches, rate effect between 0.5 and 1 L/100 L
  return bloom: return bloom is reduced
nectarine; distal part, 0.5 L/hL
  No of flowers: 4.7
  No of flowers, change vs untreated: −58%
nectarine; distal part, 1 L/hL
  No of flowers: 3.7
  No of flowers, change vs untreated: −67%
UFO-4 nectarines [3]; [16]
  Number of fruit/m of long fruiting shoots (>20 cm): 20
  Number of fruit/m of short fruiting shoots (<20 cm): 27
  Number of fruit/m of total fruiting shoots: 21
  Total number of fruit per tree: 704
UFO-4 nectarines [3]; [17]
  Number of fruit/m of long fruiting shoots (>20 cm): 23
  Number of fruit/m of short fruiting shoots (<20 cm): 28
  Number of fruit/m of total fruiting shoots: 24
  Total number of fruit per tree: 729
UFO-4 nectarines [3]; [18]
  Number of fruit/m of long fruiting shoots (>20 cm): 17
  Number of fruit/m of short fruiting shoots (<20 cm): 12
  Number of fruit/m of total fruiting shoots: 16
  Total number of fruit per tree: 491
UFO-4 nectarines [3]; [19]
  Number of fruit/m of long fruiting shoots (>20 cm): 13
  Number of fruit/m of short fruiting shoots (<20 cm): 7
  Number of fruit/m of total fruiting shoots: 12
  Total number of fruit per tree: 375
UFO-4 nectarines [3]; at comparable amounts of GA7 and GA3 (Falgro tablets)
  thinning effectiveness of GA7 versus GA3: more effective
